The supplement of paper PMC10307832

Legend:
Assay in all cases: relative viability (nuclei count vs DMSO), 5 days (fraction); higher = more cells survive
[1] = compound: C1/C(=C\C2=CC=CS2)/C(=O)/C(=C/C3=CC=CS3)/C1 + C[C@@H](Oc1cc(-c2cnn(C3CCNCC3)c2)cnc1N)c1c(Cl)ccc(F)c1Cl [Crizotinib] (partner 1 µM)
Method in brief: (§1)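 Lung cancer cell lines were pin-tool dosed in 1536-well plates on the day after seeding, with either a lone drug or a fixed anchor-drug dose plus five library-drug doses (not always all listed) in √10 steps. Nuclei were counted on 4× images after 5 days. Relative viability is the ratio of treated-well to vehicle-well nuclei counts, with each value a median of duplicate plates.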

TPCA-1 + Pictilisib = compound: C1=CC(=CC=C1C2=CC(=C(S2)NC(=O)N)C(=O)N)F [TPCA-1] + CS(=O)(=O)N1CCN(Cc2cc3nc(-c4cccc5[nH]ncc45)nc(N4CCOCC4)c3s2)CC1 [Pictilisib] (partner 1 µM)
Method in brief: as §1

TPCA-1 + Olaparib = compound: C1=CC(=CC=C1C2=CC(=C(S2)NC(=O)N)C(=O)N)F [TPCA-1] + O=C(c1cc(Cc2n[nH]c(=O)c3ccccc23)ccc1F)N1CCN(C(=O)C2CC2)CC1 [Olaparib] (partner 8 µM)
Method in brief: as §1

[2] = compound: C1/C(=C\C2=CC=CS2)/C(=O)/C(=C/C3=CC=CS3)/C1 + CC(=O)Nc1cccc(-n2c(=O)n(C3CC3)c(=O)c3c(Nc4ccc(I)cc4F)n(C)c(=O)c(C)c32)c1 [Trametinib] (partner 0.02 µM)
Method in brief: as §1

Cell Line	relative viability ([1]; first compound 0.2 µM)	relative viability ([1]; first compound 0.6325 µM)	relative viability ([1]; first compound 2 µM)	relative viability ([1]; first compound 6.325 µM)	relative viability ([1]; first compound 20 µM)	relative viability (TPCA-1 + Pictilisib; first compound 0.04 µM)	relative viability (TPCA-1 + Pictilisib; first compound 0.1265 µM)	relative viability (TPCA-1 + Pictilisib; first compound 0.4 µM)	relative viability (TPCA-1 + Pictilisib; first compound 1.265 µM)	relative viability (TPCA-1 + Pictilisib; first compound 4 µM)	relative viability (TPCA-1 + Olaparib; first compound 0.04 µM)	relative viability (TPCA-1 + Olaparib; first compound 0.1265 µM)	relative viability (TPCA-1 + Olaparib; first compound 0.4 µM)	relative viability (TPCA-1 + Olaparib; first compound 1.265 µM)	relative viability (TPCA-1 + Olaparib; first compound 4 µM)	relative viability ([2]; first compound 0.2 µM)	relative viability ([2]; first compound 0.6325 µM)	relative viability ([2]; first compound 2 µM)	relative viability ([2]; first compound 6.325 µM)	relative viability ([2]; first compound 20 µM)
Calu-6	0.845	0.873	0.846	0.764	0.772	0.954	0.841	0.946	0.785	0.469	0.671	0.57	0.553	0.539	0.511	–	–	–	–	–
NCI-H1648	–	–	–	–	–	–	–	–	–	–	0.799	0.81	0.626	1.1	0.933	0.604	0.628	0.435	0.417	0.256
NCI-H3122	0.247	0.273	0.279	0.215	0.272	0.725	0.511	0.603	0.612	0.595	0.627	0.605	0.594	0.588	0.439	0.25	0.222	0.226	0.233	0.251
NCI-H2347	0.717	0.771	0.7	0.689	0.606	0.588	0.568	0.901	0.806	0.31	0.565	0.54	0.607	0.578	0.545	0.273	0.271	0.27	0.26	0.28
HCC-44	0.802	0.862	0.712	0.734	0.798	0.684	0.571	0.619	0.792	0.508	0.983	0.938	0.95	0.908	0.937	1.1	1.07	1.09	0.925	0.911
HCC-78	0.334	0.35	0.354	0.313	0.327	0.242	0.194	0.21	0.203	0.103	0.917	0.844	0.892	1.01	0.493	0.762	0.438	0.744	0.805	0.666
COR-L23	0.536	0.69	0.639	0.592	0.633	0.964	0.671	0.829	0.716	0.438	0.393	0.329	0.286	0.303	0.325	0.553	0.575	0.674	0.508	0.633
NCI-H1993	0.897	0.9	0.784	0.63	0.743	0.883	–	0.939	0.911	0.723	1.23	1.03	0.958	1.07	0.99	0.491	0.412	0.478	0.437	0.447
NCI-H2405	0.904	0.851	0.851	0.798	0.839	0.487	0.353	0.493	–	0.364	0.908	0.833	0.951	0.717	0.691	0.688	0.578	0.603	0.585	0.699
NCI-H2126	1	1.1	0.989	0.887	0.986	0.507	0.435	0.506	0.505	0.309	0.951	0.924	0.911	0.875	0.88	0.554	0.586	0.576	0.502	0.585
NCI-H2342	–	–	–	–	–	–	–	–	–	–	0.487	0.351	0.44	0.423	0.325	0.859	0.819	0.801	0.672	0.899
ABC-1	1.05	1.21	1.25	1.01	0.92	0.82	0.479	0.672	0.429	0.524	1.43	0.676	0.97	0.789	0.788	–	–	–	–	–
NCI-H1563	0.843	0.887	0.899	0.832	0.987	0.671	0.633	0.63	0.661	0.611	–	–	–	–	–	–	–	–	–	–
NCI-H522	–	–	–	–	–	–	–	–	–	–	0.834	0.504	0.642	0.643	0.556	0.726	0.728	0.715	0.739	0.767
NCI-H1793	–	–	–	–	–	0.292	0.381	0.454	0.245	0.28	0.982	0.735	1.1	0.821	0.546	0.429	0.452	0.49	0.403	0.463
SW 900	–	–	–	–	–	–	–	–	–	–	–	–	0.894	0.935	0.644	0.739	0.752	0.815	0.308	0.734
EBC-1	0.204	0.213	0.191	0.189	0.22	0.462	0.421	0.466	0.474	0.362	0.759	0.606	0.784	0.727	0.715	–	–	–	–	–
IA-LM	1.19	0.721	0.651	0.747	1	0.319	0.339	0.417	0.376	0.404	0.818	0.834	0.846	0.765	0.72	–	–	–	–	–
NCI-H1703	0.94	1.12	0.919	0.585	0.737	0.263	0.284	0.259	–	0.213	0.443	0.39	0.433	0.398	0.424	–	–	–	–	–
NCI-H1395	–	–	–	–	–	0.694	0.66	0.68	0.505	0.607	0.496	0.426	0.494	0.519	0.494	1.13	0.996	1.08	0.88	1.09
